Test results reported in US7468369B2, “Sulfonyl pyrrolidines, method for producing the same and their use as drugs” (Sanofi-Aventis, priority 2005, dated 2008).
Structures can show the parent of a compound that is named as a salt.

system: human ABCA1 promoter; test: ABCA1 promoter test (luciferase reporter in stably transfected THP1 cell line); type: cell-based; settings: Homo sapiens, THP-1; ABCA1 reporter cell line (THP1, PMA-differentiated), 24 h incubation, luciferase chemiluminescence; read-out: E50 ABCA1
Description: The potency of substances which activate expression of the human ABCA1 gene via its promoter is analyzed by using a stably transfected THP1 cell line (human monocyte cell line) which is referred to herein as ABCA1 reporter cell line. It contains a fragment, 3.2 kb in size and stably integrated into the genome, of the human ABCA1 promoter in front of a luciferase reporter element. Expression of the luciferase reporter gene is only low without addition of an ABCA1 expression activator. The substances stimulating ABCA1 expression bring about, via activation of the ABCA1 promoter, an enhanced expression of the luciferase reporter gene. The luciferase which is formed can be detected via an appropriate substrate by means of chemiluminescence.
Construction of the Cell Line
The ABCA1 reporter line was prepared as follows: firstly the neomycin resistance gene (Acc. No.: AJ000156) was introduced into the luciferase reporter plasmid pLG3basic (#1751, Promega) 3′ below the luciferase reporter element. Subsequently, an ABCA1 promoter fragment, 3.2 kb in size and amplified from human genomic DNA (#6550-1, Clontech) by the polymerase chain reaction, was cloned in 5′ above the luciferase reporter element. The reporter plasmid produced in this way was called pGL3BN-ABCA1P. Luciferase expression in this plasmid is controlled by the ABCA1 promoter. Cloning and sequencing of the construct took place in analogy to the description in Sambrook J et al. (Molecular cloning, Cold Spring Harbor Laboratory Press, 1989). For stable transfection into THP1 cells, firstly pGL3BN-ABCA1P was linearized with a restriction endonuclease and then introduced into the THP1 cells as stated in Ausubel, F. M. et al. (Current protocols in molecular biology, Vol. 1-3, John Wiley & Sons, Inc., 1995).
The activity of ABCA1 expression activators is determined in a 3-day test which is described below:
The ABCA1 reporter cell line comprises suspension cells. These are cultured until the concentration is 0.5×10^6 cells/ml in RPMI medium (#52400-025, Invitrogen) which is mixed with the following additions: 10% FCS (fetal calf serum; #16000-044, invitrogen), 0.5 mg/ml Geneticin (#10131-019, invitrogen) and 1% penicillin-streptomycin solution (#15140-122, invitrogen). The culturing takes place in standard cell culture flasks (#353112, Becton Dickinson) in a cell culture incubator at 37° C. in the presence of 5% CO2.
For the ABCA1 promoter test, the suspension cells are centrifuged at 1200 rpm in 50 ml tubes. The supernatant is aspirated off, and the pellet is resuspended in 15 ml of RPMI medium and counted in a cell counter. After dilution to 175 000 cells/ml, 0.1 μg/ml PMA (phorbol 12-myristate 13-acetate, #8139-5MG, Sigma) is added in order to induce differentiation of the monocytic THP1 suspension cells into adherent macrophages. 35 000 cells in each well are seeded in a 96-well microtiter plate with clear plastic base (#3610, Corning Costar). The plates are incubated in a cell culture incubator at 37° C. and 5% CO2 for 24 h.
The ABCA1 expression activators to be tested are dissolved in a concentration of 10 mM in DMSO. This stock solution is diluted in the RPMI medium (mixed with 0.1 μg/ml PMA) described above. Test substances are tested in 11 different concentrations in the range from […] to 330 pM. The medium of the ABCA1 reporter cell line seeded on day 1 is completely removed by aspiration and the diluted test substances are immediately added to the cells. The dilution and addition of the substances takes place with a pipetting robot (Beckman FX). The final volume of the test substances diluted in medium is 100 μl per well of a 96-well microtiter plate. The DMSO concentration in the test is less than 0.1% v/v in order to avoid cytotoxic effects of the solvent.
The test plates are incubated in an incubator at 37° C. and 5% CO2 for 24 h.
The ABCA1 reporter cells treated with the test substances are removed from the incubator and the medium is aspirated off. […]

Row | SMILES | EC50
1 | O=C([C@@H]1CN(S(=O)(=O)c2cc(Br)c(Br)s2)C[C@H]1c1ccccc1)N1CCN(c2ccccc2)CC1 (racemic) [Example 64, [1-(4,5-Dibromothiophene-2-sulfonyl)-3,4-trans-4-phenylpyrrolidin-3-yl]-(4-phenylpiperazin-1-yl)methanone] | 3.16 µM
2 | COc1ccccc1N1CCN(C(=O)[C@@H]2CN(S(=O)(=O)c3cc(Br)c(Br)s3)C[C@H]2c2ccccc2)CC1 (racemic) [Example 25, [1-(4,5-Dibromothiophene-2-sulfonyl)-3,4-trans-4-phenylpyrrolidin-3-yl]-[4-(2-methoxyphenyl)piperazin-1-yl]methanone] | 3.81 µM
3 | COc1ccccc1N1CCN(C(=O)[C@@H]2CN(S(=O)(=O)c3sc4ccc(Cl)cc4c3C)C[C@H]2c2ccccc2)CC1 (racemic) [Example 29, [1-(5-Chloro-3-methylbenzo[b]thiophene-2-sulfonyl)-3,4-trans-4-phenyl-pyrrolidin-3-yl]-[4-(2-methoxyphenyl)piperazin-1-yl]methanone] | 5.61 µM
4 | Cc1ccc(N2CCN(C(=O)[C@@H]3CN(S(=O)(=O)c4cccs4)C[C@H]3c3ccccc3)CC2)cc1C (racemic) [Example 42, [4-(3,4-Dimethylphenyl)piperazin-1-yl]-[3,4-trans-4-phenyl-1-(thiophene-2-sulfonyl)pyrrolidin-3-yl)methanone] | 18.8 µM
5 | Cc1ccc(N2CCN(C(=O)[C@@H]3CN(S(=O)(=O)c4cc(Br)c(Br)s4)C[C@H]3c3ccccc3)CC2)c(C)c1 (racemic) [Example 37, [1-(4,5-Dibromothiophene-2-sulfonyl)-3,4-trans-4-phenylpyrrolidin-3-yl]-[4-(2,4-dimethylphenyl)piperazin-1-yl]methanone] | 2.57 µM
6 | Cc1ccc(N2CCN(C(=O)[C@@H]3CN(S(=O)(=O)c4cc(Cl)c(Cl)s4)C[C@H]3c3ccccc3)CC2)c(C)c1 (racemic) [Example 39] | 3.73 µM
7 | Cc1cccc(N2CCN(C(=O)[C@@H]3CN(S(=O)(=O)c4cccs4)C[C@H]3c3ccccc3)CC2)c1C (racemic) [Example 52] | 3.27 µM

Further lines, results first:

Row | EC50 | SMILES
8 | 2.64 µM | Cc1ccc(C)c(N2CCN(C(=O)[C@@H]3CN(S(=O)(=O)c4c(C)noc4C)C[C@H]3c3ccoc3)CC2)c1 [Example 115, [1-(3,5-Dimethylisoxazole-4-sulfonyl)-3,4-trans-4-furan-3-ylpyrrolidin-3-yl]-[4-(2,5-dimethylphenyl)piperazin-1-yl]methanone trifluoroacetate]
9 | 0.401 µM | Cc1ccc(C)c(N2CCN(C(=O)[C@@H]3CN(S(=O)(=O)c4c(C)noc4C)C[C@H]3c3ccccc3C)CC2)c1 [Example 98, [1-(3,5-Dimethylisoxazole-4-sulfonyl)-3,4-trans-4-o-tolylpyrrolidin-3-yl]-[4-(2,5-dimethylphenyl)piperazin-1-yl]methanone trifluoroacetate]
10 | 0.459 µM | COc1cccc(S(=O)(=O)N2C[C@@H](C(=O)N3CCN(c4c(C)cccc4C)CC3)[C@H](c3ccccc3)C2)c1 (racemic) [Example 86]
11 | 10.8 µM | Cc1ccc(C)c(N2CCN(C(=O)[C@@H]3CN(S(=O)(=O)c4cccnc4)C[C@H]3c3ccoc3)CC2)c1 [Example 116, [4-(2,5-Dimethylphenyl)piperazin-1-yl]-[3,4-trans-4-furan-3-yl-1-(pyridine-3-sulfonyl)pyrrolidin-3-yl]methanone trifluoroacetate]
12 | 1.49 µM | COc1cccc(S(=O)(=O)N2C[C@@H](C(=O)N3CCN(c4cc(OC)ccc4OC)CC3)[C@H](c3ccccc3)C2)c1 [Example 82, [4-(2,5-Dimethoxyphenyl)piperazin-1-yl]-[1-(3-methoxybenzenesulfonyl)-3,4-trans-4-phenylpyrrolidin-3-yl]methanone trifluoroacetate]
13 | 0.585 µM | Cc1ccc(C)c(N2CCN(C(=O)[C@@H]3CN(S(=O)(=O)c4c(C)noc4C)C[C@H]3c3cccc4c3OCO4)CC2)c1 [Example 108, [3,4-trans-4-Benzo[1,3]dioxol-4-yl-1-(3,5-dimethylisoxazole-4-sulfonyl)-pyrrolidin-3-yl]-[4-(2,5-dimethylphenyl)piperazin-1-yl]methanone trifluoroacetate]
